From ChEMBL document CHEMBL3272273, “Synthesis and pharmacological activity and some derivatives of 1-phenyl-1,2,3,4-tetrahydro-5H-1,4-benzodiazepin-5-one” (J Med Chem, 1978)

Tested on: Mus musculus
Assay: Toxicity in albino mouse assessed as body-temperature variation at 10 mg/kg, ip measured 20 mins after dl-amphetamine sulfate injection dosed 30 mins before dl-amphetamine sulfate injection
Assay type: organism-based
Set-up: dose 10 mg/kg, route intraperitoneal
Details: in vivo

Going from `CN(C)CCN1CCN(c2ccccc2)c2ccccc2C1=O` to `O=C1c2ccccc2N(c2ccccc2)CCN1CCN1CCCC1`, the temperature change falls from 0.6 °C to -0.2 °C.

`O=C1c2ccccc2N(c2ccccc2)CCN1CCN1CCCCC1` and `Nc1ccc(N2CCNC(=O)c3ccccc32)cc1` are the same in temperature change: 1.4 °C for the first, 1.4 °C for the second.

Compared with `O=C1NCCN(c2ccc([N+](=O)[O-])cc2)c2ccc([N+](=O)[O-])cc21`, `Nc1ccc2c(c1)C(=O)NCCN2c1ccc([N+](=O)[O-])cc1` is higher in temperature change: 1 °C for the first, 1.2 °C for the second.

Tested on: Mus musculus
Assay: Toxicity in ip dosed mouse assessed as sedative action
Assay type: organism-based
Details: in vivo

With `CN(C)CCN1CCN(c2ccccc2)c2ccccc2C1=O` the Activity was “Non-toxic”.
With `CN(C)CCCN1CCN(c2ccccc2)c2ccccc2C1=O` the Activity was “Non-toxic”.
In the case of `CC(CN(C)C)N1CCN(c2ccccc2)c2ccccc2C1=O` (stereo unspecified), the Activity is reported as “Non-toxic”.
With `O=C1c2ccccc2N(c2ccccc2)CCN1CCN1CCCC1` the Activity was “Non-toxic”.
With `O=C1c2ccccc2N(c2ccccc2)CCN1CCN1CCCCC1` the Activity was “Non-toxic”.
In the case of `O=C1NCCN(c2ccc([N+](=O)[O-])cc2)c2ccc([N+](=O)[O-])cc21`, the Activity is reported as “Non-toxic”.
For `Nc1ccc2c(c1)C(=O)NCCN2c1ccc([N+](=O)[O-])cc1`, the Activity was “Non-toxic”.
For `Nc1ccc(N2CCNC(=O)c3ccccc32)cc1`, the Activity was “Non-toxic”.

Tested on: Mus musculus
Assay: Toxicity in ip dosed albino mouse assessed as barbiturate-induced sleep by measuring loss of righting reflex administered 45 mins before barbiturate challenge relative to control
Assay type: organism-based
Details: in vivo, 0.75 h

Compared with `CN(C)CCN1CCN(c2ccccc2)c2ccccc2C1=O`, `CN(C)CCCN1CCN(c2ccccc2)c2ccccc2C1=O` is lower in Activity: 15% for the first, 10% for the second.

First: CC(CN(C)C)N1CCN(c2ccccc2)c2ccccc2C1=O (stereo unspecified)
Second: O=C1c2ccccc2N(c2ccccc2)CCN1CCN1CCCC1
The Activity of the first is lower: 12.5% for the first, 20% for the second.

Compared with `O=C1c2ccccc2N(c2ccccc2)CCN1CCN1CCCCC1`, `Nc1ccc(N2CCNC(=O)c3ccccc32)cc1` is higher in Activity: 20% for the first, 50% for the second.

`O=C1NCCN(c2ccc([N+](=O)[O-])cc2)c2ccc([N+](=O)[O-])cc21` and `Nc1ccc2c(c1)C(=O)NCCN2c1ccc([N+](=O)[O-])cc1` are the same in Activity: 50% for the first, 50% for the second.

Tested on: Mus musculus
Assay: Neurotoxicity in albino mouse at 10 mg/kg, po up to 5 mins by rotorod test relative to control
Assay type: toxicity, organism-based
Set-up: dose 10 mg/kg, route oral
Details: in vivo

First: CN(C)CCN1CCN(c2ccccc2)c2ccccc2C1=O
Second: CN(C)CCCN1CCN(c2ccccc2)c2ccccc2C1=O
The Activity of the first is higher: -6% for the first, -12% for the second.

Going from `CC(CN(C)C)N1CCN(c2ccccc2)c2ccccc2C1=O` (stereo unspecified) to `O=C1c2ccccc2N(c2ccccc2)CCN1CCN1CCCC1`, the Activity falls from -25% to -32%.

Compared with `O=C1c2ccccc2N(c2ccccc2)CCN1CCN1CCCCC1`, `Nc1ccc(N2CCNC(=O)c3ccccc32)cc1` is higher in Activity: -27% for the first, -20% for the second.

First: O=C1NCCN(c2ccc([N+](=O)[O-])cc2)c2ccc([N+](=O)[O-])cc21
Second: Nc1ccc2c(c1)C(=O)NCCN2c1ccc([N+](=O)[O-])cc1
The Activity of the first is lower: -45% for the first, 39% for the second.

Tested on: Mus musculus
Assay: Anticonvulsant activity in ip dosed albino mouse assessed as dose causing >25% increase in maximal electroshock-induced maximal extensor seizure relative to untreated control
Assay type: functional
Details: not given

Going from `CN(C)CCN1CCN(c2ccccc2)c2ccccc2C1=O` to `CN(C)CCCN1CCN(c2ccccc2)c2ccccc2C1=O`, the Activity falls from 50 mg/kg to 10 mg/kg (5-fold).

Going from `CC(CN(C)C)N1CCN(c2ccccc2)c2ccccc2C1=O` (stereo unspecified) to `O=C1c2ccccc2N(c2ccccc2)CCN1CCN1CCCCC1`, the Activity rises from 12 mg/kg to 25 mg/kg (2.1-fold).

Tested on: Ileum
Assay: Antiacetylcholine activity in guinea pig ileum assessed as dose required to decrease 50 to 100% of acetylcholine-induced effect treated 5 mins before acetylcholine addition
Assay type: functional, Cavia porcellus
Details: not given

`CN(C)CCN1CCN(c2ccccc2)c2ccccc2C1=O` and `CN(C)CCCN1CCN(c2ccccc2)c2ccccc2C1=O` are the same in Activity: 100 µg/mL for the first, 100 µg/mL for the second.

Compared with `CC(CN(C)C)N1CCN(c2ccccc2)c2ccccc2C1=O` (stereo unspecified), `O=C1c2ccccc2N(c2ccccc2)CCN1CCN1CCCC1` is 2-fold higher in Activity: 50 µg/mL for the first, 100 µg/mL for the second.

First: O=C1c2ccccc2N(c2ccccc2)CCN1CCN1CCCCC1
Second: Nc1ccc(N2CCNC(=O)c3ccccc32)cc1
The Activity of the first is 2-fold lower: 100 µg/mL for the first, 200 µg/mL for the second.

First: O=C1NCCN(c2ccc([N+](=O)[O-])cc2)c2ccc([N+](=O)[O-])cc21
Second: Nc1ccc2c(c1)C(=O)NCCN2c1ccc([N+](=O)[O-])cc1
The Activity of the first is 4-fold higher: 200 µg/mL for the first, 50 µg/mL for the second.

Tested on: Ileum
Assay: Antihistamine activity in guinea pig ileum assessed as dose required to decrease 50 to 100% of histamine induced effect treated 5 mins before histamine addition
Assay type: functional, Cavia porcellus
Details: not given

Going from `CN(C)CCN1CCN(c2ccccc2)c2ccccc2C1=O` to `CN(C)CCCN1CCN(c2ccccc2)c2ccccc2C1=O`, the Activity rises from 50 µg/mL to 100 µg/mL (2-fold).

`CC(CN(C)C)N1CCN(c2ccccc2)c2ccccc2C1=O` (stereo unspecified) and `O=C1c2ccccc2N(c2ccccc2)CCN1CCN1CCCC1` are the same in Activity: 50 µg/mL for the first, 50 µg/mL for the second.

Compared with `O=C1c2ccccc2N(c2ccccc2)CCN1CCN1CCCCC1`, `Nc1ccc(N2CCNC(=O)c3ccccc32)cc1` is 4-fold higher in Activity: 50 µg/mL for the first, 200 µg/mL for the second.

`O=C1NCCN(c2ccc([N+](=O)[O-])cc2)c2ccc([N+](=O)[O-])cc21` and `Nc1ccc2c(c1)C(=O)NCCN2c1ccc([N+](=O)[O-])cc1` are the same in Activity: 200 µg/mL for the first, 200 µg/mL for the second.

Tested on: Mus musculus
Assay: Toxicity in ip dosed albino mouse assessed as barbiturate-induced sleep by measuring loss of righting reflex relative to control
Assay type: organism-based
Details: in vivo

Compared with `CN(C)CCN1CCN(c2ccccc2)c2ccccc2C1=O`, `CN(C)CCCN1CCN(c2ccccc2)c2ccccc2C1=O` is higher in Activity: 4% for the first, 35% for the second.

Going from `CC(CN(C)C)N1CCN(c2ccccc2)c2ccccc2C1=O` (stereo unspecified) to `O=C1c2ccccc2N(c2ccccc2)CCN1CCN1CCCC1`, the Activity rises from 20% to 60%.

First: O=C1c2ccccc2N(c2ccccc2)CCN1CCN1CCCCC1
Second: Nc1ccc(N2CCNC(=O)c3ccccc32)cc1
The Activity of the first is lower: 45% for the first, 90% for the second.

Compared with `O=C1NCCN(c2ccc([N+](=O)[O-])cc2)c2ccc([N+](=O)[O-])cc21`, `Nc1ccc2c(c1)C(=O)NCCN2c1ccc([N+](=O)[O-])cc1` is higher in Activity: 40% for the first, 70% for the second.

Tested on: Mus musculus
Assay: Toxicity in ip dosed albino mouse assessed as dose required to increase 25% of dl-amphetamine sulfate-induced death
Assay type: organism-based
Details: in vivo

`CN(C)CCN1CCN(c2ccccc2)c2ccccc2C1=O` and `O=C1c2ccccc2N(c2ccccc2)CCN1CCN1CCCCC1` are the same in Activity: 10 mg/kg for the first, 10 mg/kg for the second.

Tested on: not listed separately
Assay: Antitrypatamine activity in isolated Wistar rat caudal artery assessed as dose required to decrease 20 to 50% of […]-induced effect per 6 mL/min after 15 mins
Assay type: functional
Details: not given

`CN(C)CCN1CCN(c2ccccc2)c2ccccc2C1=O` and `CN(C)CCCN1CCN(c2ccccc2)c2ccccc2C1=O` are the same in Activity: 50 µg/min for the first, 50 µg/min for the second.

`CC(CN(C)C)N1CCN(c2ccccc2)c2ccccc2C1=O` (stereo unspecified) and `O=C1c2ccccc2N(c2ccccc2)CCN1CCN1CCCC1` are the same in Activity: 50 µg/min for the first, 50 µg/min for the second.

For `O=C1c2ccccc2N(c2ccccc2)CCN1CCN1CCCCC1`, the Activity was 25 µg/min.

Tested on: not listed separately
Assay: Acute toxicity in ip dosed albino mouse measured within 24 hrs
Assay type: organism-based
Details: in vivo

`CN(C)CCN1CCN(c2ccccc2)c2ccccc2C1=O` and `CN(C)CCCN1CCN(c2ccccc2)c2ccccc2C1=O` are within 1.5-fold of each other in LD50 at 24 h: 100 mg/kg for the first, 116 mg/kg for the second.

Going from `CC(CN(C)C)N1CCN(c2ccccc2)c2ccccc2C1=O` (stereo unspecified) to `O=C1c2ccccc2N(c2ccccc2)CCN1CCN1CCCC1`, the LD50 at 24 h falls from 130 mg/kg to 80 mg/kg (1.6-fold).

Compared with `O=C1c2ccccc2N(c2ccccc2)CCN1CCN1CCCCC1`, `Nc1ccc(N2CCNC(=O)c3ccccc32)cc1` is higher in LD50 at 24 h: 75 mg/kg for the first, > 400 mg/kg for the second.

`O=C1NCCN(c2ccc([N+](=O)[O-])cc2)c2ccc([N+](=O)[O-])cc21` and `Nc1ccc2c(c1)C(=O)NCCN2c1ccc([N+](=O)[O-])cc1` cannot be ordered by LD50 at 24 h: > 400 mg/kg for the first, > 400 mg/kg for the second.

Tested on: not listed separately
Assay: Antinoradrenaline activity in isolated Wistar rat caudal artery assessed as dose required to decrease 20 to 50% of noradrenaline-induced effect per 6 mL/min after 15 mins
Assay type: functional
Details: not given

First: CN(C)CCN1CCN(c2ccccc2)c2ccccc2C1=O
Second: CN(C)CCCN1CCN(c2ccccc2)c2ccccc2C1=O
The Activity of the first is higher: 200 µg/min for the first, 160 µg/min for the second.

Compared with `CC(CN(C)C)N1CCN(c2ccccc2)c2ccccc2C1=O` (stereo unspecified), `O=C1c2ccccc2N(c2ccccc2)CCN1CCN1CCCC1` is lower in Activity: 160 µg/min for the first, 15 µg/min for the second.

Work on `O=C1c2ccccc2N(c2ccccc2)CCN1CCN1CCCCC1` yielded an Activity of 25 µg/min.

Tested on: Mus musculus
Assay: Toxicity in albino mouse assessed as translatory movements at 10 mg/kg, ip relative to control
Assay type: organism-based
Set-up: dose 10 mg/kg, route intraperitoneal
Details: in vivo

Compared with `CN(C)CCN1CCN(c2ccccc2)c2ccccc2C1=O`, `CN(C)CCCN1CCN(c2ccccc2)c2ccccc2C1=O` is higher in Activity: -30% for the first, -15% for the second.

Going from `CC(CN(C)C)N1CCN(c2ccccc2)c2ccccc2C1=O` (stereo unspecified) to `O=C1c2ccccc2N(c2ccccc2)CCN1CCN1CCCC1`, the Activity falls from 4% to -10%.

Compared with `O=C1c2ccccc2N(c2ccccc2)CCN1CCN1CCCCC1`, `Nc1ccc(N2CCNC(=O)c3ccccc32)cc1` is higher in Activity: -11% for the first, 2% for the second.

First: O=C1NCCN(c2ccc([N+](=O)[O-])cc2)c2ccc([N+](=O)[O-])cc21
Second: Nc1ccc2c(c1)C(=O)NCCN2c1ccc([N+](=O)[O-])cc1
The Activity of the first is lower: -21% for the first, -15% for the second.
